Consider 3 molecules from paper PMC6366423 (Journal of Enzyme Inhibition and Medicinal Chemistry, 2019).

Assay [1] deals with T1, EeAChE (Electrophorus electricus, UniProt O42275).
T1 construct: EeAChE (type VI-S, purified from Electrophorus electricus); tissue type VI-S
The assay is described as follows: biochemical. On the procedure: (§1) Inhibition of EeAChE and eqBuChE of hybrids 14a–p was carried out with EeAChE (type VI-S, purified from Electrophorus electricus) and eqBuChE (purified from equine serum) using Ellman’s protocol. Briefly, the reaction was performed in a final volume of 3 ml of a phosphate-buffered solution (0.1 M) at pH = 8.0 containing 5,5’-dithiobis-2-nitrobenzoic acid (DTNB) (2.625 μL, 0.35 mM), EeAChE (29 μl, 0.035 U/mL) or eqBuChE (60 μl, 0.05 U/mL), Bovine Albumin Serum phosphate-buffered solution (40 μL 1% w/v), and tested compound (3 µL). After 10 min of incubation, the substrate, AcTCh) iodide or butyrylthiocholine (BuTCh) iodide, was added, and the reaction was incubated for an additional 15 min.

In assay [2] the target is T2, hAChE (Homo sapiens, UniProt P22303).
T2 construct: purchased Sigma Aldrich; host or cells: HEK 293
T2 sequence (P22303 32-614): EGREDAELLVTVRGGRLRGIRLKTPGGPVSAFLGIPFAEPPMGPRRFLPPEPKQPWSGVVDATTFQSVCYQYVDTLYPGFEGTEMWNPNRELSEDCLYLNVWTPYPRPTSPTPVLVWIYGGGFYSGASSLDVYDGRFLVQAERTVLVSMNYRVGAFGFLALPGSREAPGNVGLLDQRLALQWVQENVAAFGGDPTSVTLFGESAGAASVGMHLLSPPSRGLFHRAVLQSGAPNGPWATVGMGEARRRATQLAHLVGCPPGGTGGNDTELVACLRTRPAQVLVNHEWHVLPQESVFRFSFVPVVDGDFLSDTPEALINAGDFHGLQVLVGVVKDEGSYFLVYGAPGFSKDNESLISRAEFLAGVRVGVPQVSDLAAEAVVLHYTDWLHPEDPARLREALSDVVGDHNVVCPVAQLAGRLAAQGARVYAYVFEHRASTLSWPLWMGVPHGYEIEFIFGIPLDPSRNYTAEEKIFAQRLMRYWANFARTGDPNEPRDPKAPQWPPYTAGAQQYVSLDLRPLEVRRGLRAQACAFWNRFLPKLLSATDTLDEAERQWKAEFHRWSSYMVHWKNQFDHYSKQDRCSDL
Description: biochemical. The assay is classed as biochemical.

Assay [3] concerns the target T3, hMAOA (Homo sapiens, UniProt P21397).
T3 sequence (P21397 1-527): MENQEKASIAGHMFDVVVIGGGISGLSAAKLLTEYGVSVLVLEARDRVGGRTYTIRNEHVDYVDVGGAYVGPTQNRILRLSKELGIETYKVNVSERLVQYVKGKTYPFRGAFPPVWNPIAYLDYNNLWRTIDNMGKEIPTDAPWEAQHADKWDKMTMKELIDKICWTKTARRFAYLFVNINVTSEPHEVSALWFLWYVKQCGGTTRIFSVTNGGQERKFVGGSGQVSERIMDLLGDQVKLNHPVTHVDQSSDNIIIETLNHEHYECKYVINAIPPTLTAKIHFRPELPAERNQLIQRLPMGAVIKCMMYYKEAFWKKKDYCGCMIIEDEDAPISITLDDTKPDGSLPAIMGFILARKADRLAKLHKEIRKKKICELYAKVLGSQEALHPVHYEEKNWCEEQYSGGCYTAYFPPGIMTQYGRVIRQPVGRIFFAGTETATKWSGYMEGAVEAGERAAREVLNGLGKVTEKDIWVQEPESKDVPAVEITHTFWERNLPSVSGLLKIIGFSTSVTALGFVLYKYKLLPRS
Description: MAO activity assay (kynuramine, HPLC-MS). The assay is classed as biochemical.

In assay [4] the target is T4, hMAOB (Homo sapiens, UniProt P27338).
T4 sequence (P27338 1-520): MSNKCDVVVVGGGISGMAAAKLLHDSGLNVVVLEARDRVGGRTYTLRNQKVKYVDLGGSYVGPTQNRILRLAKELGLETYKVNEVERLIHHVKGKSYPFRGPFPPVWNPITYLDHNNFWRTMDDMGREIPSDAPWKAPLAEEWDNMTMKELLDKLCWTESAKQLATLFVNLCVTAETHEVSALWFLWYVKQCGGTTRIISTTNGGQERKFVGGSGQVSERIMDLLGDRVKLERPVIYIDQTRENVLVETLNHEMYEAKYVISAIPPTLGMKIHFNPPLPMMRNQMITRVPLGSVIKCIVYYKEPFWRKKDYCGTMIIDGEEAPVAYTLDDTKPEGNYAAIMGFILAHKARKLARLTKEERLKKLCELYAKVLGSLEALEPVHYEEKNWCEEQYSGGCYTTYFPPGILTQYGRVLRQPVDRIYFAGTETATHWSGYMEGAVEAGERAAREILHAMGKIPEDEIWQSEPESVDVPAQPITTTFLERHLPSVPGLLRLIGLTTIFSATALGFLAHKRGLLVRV
The assay is described as follows: MAO activity assay (kynuramine, HPLC-MS). The assay is classed as biochemical. To be noted: at 10 μM; read-out: hMAOB enzymatic inhibition (%).

For assay [5], the target named is T5, eqBuChE (Equus caballus, UniProt P81908).
T5 construct: eqBuChE (purified from equine serum); from tissue; host or cells: equine serum
T5 sequence (P81908 whole entry): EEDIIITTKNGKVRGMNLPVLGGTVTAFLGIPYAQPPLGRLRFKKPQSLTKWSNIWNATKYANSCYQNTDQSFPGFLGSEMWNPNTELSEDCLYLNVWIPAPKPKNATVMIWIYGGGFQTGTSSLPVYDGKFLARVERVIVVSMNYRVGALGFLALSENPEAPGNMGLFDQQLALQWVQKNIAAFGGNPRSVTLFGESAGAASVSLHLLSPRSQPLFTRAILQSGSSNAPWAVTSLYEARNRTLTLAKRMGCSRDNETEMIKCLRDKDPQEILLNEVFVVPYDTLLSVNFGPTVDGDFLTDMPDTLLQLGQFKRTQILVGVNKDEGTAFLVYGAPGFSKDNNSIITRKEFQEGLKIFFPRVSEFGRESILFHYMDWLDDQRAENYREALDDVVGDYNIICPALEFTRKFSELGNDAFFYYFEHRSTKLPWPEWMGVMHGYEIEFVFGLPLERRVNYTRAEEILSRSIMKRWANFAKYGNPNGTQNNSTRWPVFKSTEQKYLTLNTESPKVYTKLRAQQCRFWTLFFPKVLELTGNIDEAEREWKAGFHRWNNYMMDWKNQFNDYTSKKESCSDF
The assay is described as follows: biochemical. Type of assay: biochemical, equine. The following applies: mean ± SEM. On the procedure:
as §1

The target of assay [6] is T6, hBuChE (Homo sapiens, UniProt P06276).
T6 construct: hBuChE from human serum (Sigma Aldrich, Madrid, Spain); purchased Sigma Aldrich; host or cells: human serum
T6 sequence (P06276 29-602): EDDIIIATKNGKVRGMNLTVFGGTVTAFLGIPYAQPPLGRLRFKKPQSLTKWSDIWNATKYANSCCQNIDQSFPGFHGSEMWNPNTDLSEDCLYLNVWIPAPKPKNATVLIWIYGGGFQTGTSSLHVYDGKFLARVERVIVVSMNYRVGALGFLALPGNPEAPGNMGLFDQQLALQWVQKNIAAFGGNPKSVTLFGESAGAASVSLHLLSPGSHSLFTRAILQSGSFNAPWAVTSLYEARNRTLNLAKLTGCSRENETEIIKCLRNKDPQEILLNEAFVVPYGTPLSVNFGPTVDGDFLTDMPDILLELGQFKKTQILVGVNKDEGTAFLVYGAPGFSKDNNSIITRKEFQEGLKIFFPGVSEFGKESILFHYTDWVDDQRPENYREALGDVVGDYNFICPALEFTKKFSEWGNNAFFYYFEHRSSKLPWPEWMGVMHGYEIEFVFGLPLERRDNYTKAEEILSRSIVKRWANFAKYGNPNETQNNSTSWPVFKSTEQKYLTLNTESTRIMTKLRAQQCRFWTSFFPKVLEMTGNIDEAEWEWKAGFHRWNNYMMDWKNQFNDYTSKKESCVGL
The assay is described as follows: biochemical. The assay is classed as biochemical.

Assay [7] in a line: Oxygen radical absorbance capacity assay (ORAC-FL). The following applies: Trolox equivalents (TE), mean (n = 3) ± SD.
The conditions of assay [8]: ORAC-FL, positive reference molecules; cited from earlier work.

Values joined by “and” are separate entries in the source; they are usually repeats but may differ in a detail not shown here. Identical values can stand only once. Like-named read-outs stand apart in the source and are kept apart here.

T1 sequence (O42275 24-633): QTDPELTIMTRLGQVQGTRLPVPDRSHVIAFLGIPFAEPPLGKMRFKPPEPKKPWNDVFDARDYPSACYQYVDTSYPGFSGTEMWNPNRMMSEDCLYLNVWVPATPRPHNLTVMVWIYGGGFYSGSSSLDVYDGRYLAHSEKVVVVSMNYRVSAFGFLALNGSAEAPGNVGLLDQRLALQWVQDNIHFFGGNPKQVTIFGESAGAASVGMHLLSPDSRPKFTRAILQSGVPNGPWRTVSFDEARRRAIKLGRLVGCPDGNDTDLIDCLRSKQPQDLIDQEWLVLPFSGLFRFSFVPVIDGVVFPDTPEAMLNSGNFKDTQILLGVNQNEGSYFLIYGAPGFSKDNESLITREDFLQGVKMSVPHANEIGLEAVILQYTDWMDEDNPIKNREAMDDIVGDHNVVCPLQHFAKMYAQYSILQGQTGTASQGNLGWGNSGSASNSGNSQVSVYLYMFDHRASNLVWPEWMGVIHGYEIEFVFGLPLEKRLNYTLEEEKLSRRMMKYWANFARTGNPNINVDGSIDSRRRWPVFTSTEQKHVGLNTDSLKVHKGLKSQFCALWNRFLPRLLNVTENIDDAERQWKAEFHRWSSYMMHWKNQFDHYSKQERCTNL

In general, IC50 refers to the concentration that inhibits the measured activity by half. By inhibition is commonly meant the drop in the measured response relative to a control, in per cent. With `CC(C)Oc1ccc2[nH]cc(CCNC(=O)CN(CCCCC3CCN(Cc4ccccc4)CC3)C(=O)c3cc(=O)c4ccccc4o3)c2c1` [14o], the half-maximal inhibitory concentration (IC50) in assay [1] (mean ± SEM) is 90 nM; in assay [1] (values given in nM), 88.5 nM; in assay [5] it was 46.6 ± 2.76 nM. Further, the inhibition at 10 µM is under 50% in assay [2] (at 10 μM, read-out: hAChE enzymatic inhibition (%)); under 40% in assay [3] (at 10 μM, read-out: hMAOA enzymatic inhibition (%)); under 40% in assay [4]; under 50% in assay [6] (at 10 μM, read-out: hBuChE enzymatic inhibition (%)). The “ORAC (Eq Trolox)” value in assay [7] was determined as 2.63 ± 0.12 Eq Trolox.

On to `CCCOc1ccc2[nH]cc(CCNC(=O)CN(CCCCC3CCN(Cc4ccccc4)CC3)C(=O)c3cc(=O)c4ccccc4o3)c2c1` [14p], for which the IC50 in assay [1] (mean ± SEM) amounted to 80 nM; in assay [2] (mean ± SEM), 2100 ± 510 nM; in assay [3], 1390 ± 110 nM; in assay [5], 61.3 ± 5.48 nM; in assay [6] (mean ± SEM), 80.4 ± 12.4 nM. For the same molecule, the inhibition at 10 µM in assay [4] was under 40%. Also, in assay [7], the “ORAC (Eq Trolox)” value was 2.67 ± 0.15 Eq Trolox.

As to `COc1cc(/C=C/C(=O)O)ccc1O` [Ferulic acid], in assay [8], the “ORAC (Eq Trolox)” value is 3.74 Eq Trolox and 3.74 ± 0.22 Eq Trolox.
